{"source": "patent US20250381216A1", "about": "“PROPHYLACTIC DRUG AND THERAPEUTIC DRUG FOR DIABETES-ASSOCIATED DEMENTIA” (priority 2022, published 2025)", "key": {"[1]": {"tested_on": "diabetes-associated dementia model (STZ injected into the cerebral ventricles of mice)", "test": "Morris water maze training test (spatial learning) in mice given streptozotocin intracerebroventricularly", "assay_type": "in vivo, C57BL/6 mice", "text": "(§1) Male C57BL/6 mice (20-22 g), 6 weeks old, were purchased from Japan SLC, Inc., and acclimated for one week. All mice (3-5 mice per cage) were maintained under specific pathogen-free conditions with a 12-hour light/dark cycle in a temperature and humidity-controlled room, with free access to food and water. Mouse diet (D12450B) was purchased from Research Diets, Inc. After the experiment, mice were anesthetized with 4% isoflurane vapor using a simple inhalation anesthesia device (NARCOBIT-E, Natsume Seisakusho Co., Ltd.) and euthanized by cardiac puncture for whole blood collection.\n(§2) LPS (Pantoea agglomerans LPS mac0001, Macrophi Inc.), prepared and purified according to the fermentation culture method (PTL 2) developed by Soma et al., was used. LPS was administered orally by dissolving LPS in drinking water (sterilized distilled water) at a dose of 1 mg/kg body weight/day. The LPS dosage was based on previous studies (NPL 8, 9). Drinking water was replaced weekly, and LPS concentration was adjusted according to average body weight and water intake. The LPS used is a substance present in the environment, consumed to some extent in daily life, and has also been added to food and cosmetics. LPS, when orally fed, enhances the functionality of phagocytes (macrophages) in the peritoneal cavity and brain (NPL 8, 9). Activated phagocytes have the function of repairing damaged tissues in the body. LPS may be derived from plant symbiotic bacteria with food experience, such as Pantoea, Enterobacter, Xanthomonas, Acetobacteraceae, and Zymomonas, but the specific strain is not limited as long as it is LPS.\nWe used a method of directly administering STZ into the cerebral ventricles as a model of the diabetes-associated dementia that causes spatial memory deterioration without increasing blood glucose levels (NPL 7). STZ was purchased from Sigma-Aldrich Co. LLC. After anesthetizing with 4% isoflurane using a stereotaxic apparatus SR-5M-HT (Narishige Co., Ltd.), STZ (2.0 mg/mouse, dissolved in 5 μl saline) was injected singly into the right lateral ventricle using a microinjector IMS-20 and micromanipulator SMM-100 (Narishige Co., Ltd.). The stereotaxic coordinates were +0.3 mm anterior, +1.0 mm lateral (right), and +2.5 mm ventral from the intersection of the sagittal and coronal sutures. After suturing the skin, an appropriate amount of antibiotic ointment (20 mg/g chloramphenicol, 5 mg/g fradiomycin, 100,000 U/g nystatin, Daiichi Sankyo Healthcare Co., Ltd.) was applied to the wound. For non-STZ control mice, 5 μl of saline was injected into the right lateral ventricle. After surgery, mice were monitored daily for pain/discomfort and infection according to guidelines. 5 μL of 5% trypan blue (Nacalai Tesque, Inc.) was administered intracerebroventricularly to confirm proper needle placement.\nFor the prevention experiment of LPS oral administration against the diabetes-associated dementia, mice were given free access to LPS in drinking water (1 mg/kg body weight/day for 33 days until the end of the test) from one week before STZ administration until the end of the experiment. Cognitive assessment tests (Morris water maze test) were conducted 3 weeks after STZ administration (4 weeks after starting LPS oral intake). 17-19 mice were used for each group.\nFor the treatment experiment of LPS oral administration against the diabetes-associated dementia, cognitive assessment tests (Morris water maze test) were conducted 12 days after STZ administration to confirm cognitive function decline. From 20 days after STZ administration, mice were given free access to LPS in drinking water (1 mg/kg body weight/day for 25 days until the end of the test). Cognitive assessment tests (Morris water maze test) were conducted 40 days after STZ administration (day 20 of LPS oral intake).\nThe Morris water maze test consists of tests evaluating spatial learning ability (training test) and spatial memory ability (probe test). […]"}, "[2]": {"tested_on": "diabetes-associated dementia model (STZ injected into the cerebral ventricles of mice)", "test": "Morris water maze probe test (spatial memory) in mice given streptozotocin intracerebroventricularly", "assay_type": "in vivo, C57BL/6 mice", "settings": "for Residence time in the quadrant where the platform was previously located: mean ± SE", "text": "as §1, §2\nWe used a method of directly administering STZ into the cerebral ventricles as a model of the diabetes-associated dementia that causes spatial memory deterioration without increasing blood glucose levels (NPL 7). STZ was purchased from Sigma-Aldrich Co. LLC. […] After surgery, mice were monitored daily for pain/discomfort and infection according to guidelines. […]"}, "[3]": {"settings": "training test starting 12 days after icv STZ 2.0 mg/mouse, before LPS treatment, mean ± SE"}, "[4]": {"settings": "treatment experiment, training test starting 40 days after icv STZ, LPS 1 mg/kg body weight/day in drinking water from day 20 after STZ"}}}
{"smiles": "CN(N=O)C(=O)N[C@H]1C(O)O[C@H](CO)[C@@H](O)[C@@H]1O", "note": "(mixture of isomers) [STZ, streptozotocin]", "values": [{"measurement": "Spatial learning ability (platform travel time over 4 days of training, FIG. 1)", "setting": "[1]; prevention experiment, LPS 1 mg/kg body weight/day in drinking water from one week before icv STZ, test three weeks after STZ", "result": "inhibited reduction in platform travel time compared to the Saline group"}, {"measurement": "Travel time (time required to reach the platform), training day 1", "setting": "[1]; [3]", "result": "55.1 ± 2.14", "unit": "s"}, {"measurement": "Travel time (time required to reach the platform), training day 2", "setting": "[1]; [3]", "result": "43.8 ± 7.00", "unit": "s"}, {"measurement": "Travel time (time required to reach the platform), training day 3", "setting": "[1]; [3]", "result": "40.4 ± 7.09", "unit": "s"}, {"measurement": "Travel time (time required to reach the platform), training day 4", "setting": "[1]; [3]", "result": "33.3 ± 6.74", "unit": "s"}, {"measurement": "Travel time (time required to reach the platform), training day 1", "setting": "[1]; [4]", "result": "44.42 ± 3.81", "unit": "s"}, {"measurement": "Travel time (time required to reach the platform), training day 2", "setting": "[1]; [4]", "result": "37.25 ± 10.41", "unit": "s"}, {"measurement": "Travel time (time required to reach the platform), training day 3", "setting": "[1]; [4]", "result": "27.83 ± 7.71", "unit": "s"}, {"measurement": "Travel time (time required to reach the platform), training day 4", "setting": "[1]; [4]", "result": "35.75 ± 10.44", "unit": "s"}, {"measurement": "Spatial memory ability (residence time in the target quadrant, FIG. 2)", "setting": "[2]; prevention experiment, LPS 1 mg/kg body weight/day in drinking water from one week before icv STZ, probe test the day after training", "result": "significantly shorter residence time in the target quadrant compared to the Saline group"}, {"measurement": "Residence time in the quadrant where the platform was previously located", "setting": "[2]; probe test 16 days after icv STZ 2.0 mg/mouse, before LPS treatment, 60-second test", "result": "18.0 ± 2.83", "unit": "s"}, {"measurement": "Residence time in the quadrant where the platform was previously located", "setting": "[2]; treatment experiment, probe test 44 days after icv STZ, LPS 1 mg/kg body weight/day in drinking water from day 20 after STZ", "result": "24.1 ± 8.73", "unit": "s"}]}
